Source: patent US4737487A, “VIP type peptides” (Beecham Group p.l.c., priority 1984, dated 1988)
Where a SMILES comes first, the peptide text is derived from it. [ ]: non-standard residue; d: D form. Nle = CCCC[C@H](N)C(=O)O

Legend:
[1] = tested on: proximal duodenum acid disposal capacity; test: Acid disposal capacity of the rat proximal duodenum (anti-ulcer activity); format: in vivo; settings: significance P<0.05
Protocol: Anti-ulcer activity may be related to the enhanced capacity to dispose of gastric acid. Acid disposal capacity may be enhanced by increased intestinal secretions and enhanced acid disposal capacity is believed to be useful in the treatment of peptic ulcer disease. Method for estimating the acid disposal capacity of the rat proximal duodenum Male Wistar rats, 180-250 g bodyweight, fasted overnight, are anaesthetized with urethane (150 mg/100 g bodyweight i.m.). The trachea is cannulated, and a gastric cannula, 0.5 cm i.d., 3 cm long, is inserted into the non-glandular forestomach via a mid-line abdominal incision. The intragastric cannula is exteriorized via a stab wound in the body wall. A triple lumen catheter, 0.3 cm o.d., is passed via the gastric cannula through the pylorus. The duodenum is ligated 1 cm below the pylorus, and the pylorus ligated around the cannula, thus creating a 1 cm proximal duodenal pouch excluding pancreatic and biliary secretions. The two ligatures enclosing the duodenal pouch are placed so as to avoid occluding the blood supply to the duodenal segment. Gastric secretions are allowed to drain freely from the gastric cannula. […] Outflow pH is recorded throughout the experiment. […] A group size of 6 animals or larger is used and the effect of compounds on the output pH compared to control data determined. […]

[2] = tested on: spontaneous motility of proximal colon; test: Colonic motility in vivo: intraluminal pressure recording in anaesthetised rat; settings: urethane-anaesthetised male Wistar rats; intravenous administration; 3 μmol/kg
Protocol: Male albino rats, Wistar strain (Charles River UK) 300-500 g were anaesthetised with urethane. A segment of proximal colon was prepared for intraluminal pressure recording after the method of Maggi and Meli (Maggi, C. A. and Meli, A. (1982), J. Pharmacol. Methods 8, 39-46). The activity of the compound (V) was assessed from its action on the spontaneous motility of the preparation after intravenous administration.

[3] = tested on: spontaneous contractile responses of circular muscle from the proximal colon; test: Colonic motility in vitro: isolated circular muscle of rat proximal colon; format: cell-based; settings: rat proximal colon circular muscle in Krebs solution, isolated tissue bath
Protocol: Segments of circular muscle cut from the proximal colon of rats were mounted in Krebs solution in isolated tissue baths after the methods of Couture et al. (Couture R. et al. (1981), Can. J. Physiol. Pharmacol., 59, 957-964; and Couture R. et al., (1982), Pharmacol., 24, 230-242). The activity of the compound V was assessed from the effect on the spontaneous contractile responses generated by this tissue.

CCCC[C@H](NC(=O)[C@H](CCC(N)=O)NC(=O)[C@@H](N)CCCCN)C(=O)N[C@@H](C)C(=O)N[C@@H](CC(C)C)C(=O)N[C@@H](CCCCN)C(N)=O [Example 4, H-Lys-Gln-Nle-Ala-Leu-Lys-NH2.Acetate] (H-KQ[Nle]ALK-NH2)
acid disposal (output pH compared to control) ([1]; 30 nmol/kg/h i.v. infusion, input pH 2.5 on first pass): significant increase | acid disposal (output pH compared to control) ([1]; 150 nmol/kg/h i.v. infusion, input pH 3 and 2.5 on first pass and input pH 2.5 on second pass): significant increase

CCCC[C@H](NC(=O)[C@H](CCC(N)=O)NC(=O)[C@@H](N)CCCCN)C(=O)N[C@@H](C)C(=O)N[C@H](C(=O)N[C@@H](CCCCN)C(N)=O)C(C)C [V, H-Lys-Gln-Nle-Ala-Val-Lys-NH2] (H-KQ[Nle]AVK-NH2)
action on the spontaneous motility of the proximal colon preparation [2]: active | ED50, effect on spontaneous contractile responses [3]: 10^-5 M
